Data as given in PubChem BioAssay AID330 (DTP/NCI, 2004).
Toxic doses and inconclusive results are not listed.

Test system: P388 leukemia ip, CD2F1 mice, survival T/C
Test: NCI In Vivo Anticancer Drug Screen. Data for tumor model P388 Leukemia (intraperitoneal) in CD2F1 (CDF1) mice
Settings: endpoint: median survival time, higher = longer survival
In short: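 Mice carrying the transplanted tumor received test compound or vehicle. Survival was recorded in each group, and the value is the treated-group measurement divided by that of the vehicle-treated control group.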

[1] = dose: 50.0 mg/kg/injection, schedule: Q01DX009 (ip), vehicle: saline with Tween-80
[2] = dose: 100.0 mg/kg/injection, schedule: Q01DX009 (ip), vehicle: saline with Tween-80
[3] = dose: 200.0 mg/kg/injection, schedule: Q01DX009 (ip), vehicle: saline with Tween-80
[4] = dose: 60.0 mg/kg/injection, schedule: Q01DX005 (ip), vehicle: saline with Tween-80
[5] = dose: 120.0 mg/kg/injection, schedule: Q01DX005 (ip), vehicle: saline with Tween-80
[6] = dose: 240.0 mg/kg/injection, schedule: Q01DX005 (ip), vehicle: saline with Tween-80
[7] = dose: 50.0 mg/kg/injection, schedule: Q04DX003 (ip), vehicle: saline with Tween-80
[8] = dose: 100.0 mg/kg/injection, schedule: Q04DX003 (ip), vehicle: saline with Tween-80
[9] = dose: 200.0 mg/kg/injection, schedule: Q04DX003 (ip), vehicle: saline with Tween-80
[10] = dose: 400.0 mg/kg/injection, schedule: Q04DX003 (ip), vehicle: saline with Tween-80
[11] = dose: 50.0 mg/kg/injection, schedule: Q01DX005 (ip), vehicle: saline with Tween-80
[12] = dose: 100.0 mg/kg/injection, schedule: Q01DX005 (ip), vehicle: saline with Tween-80
[13] = dose: 200.0 mg/kg/injection, schedule: Q01DX005 (ip), vehicle: saline with Tween-80
[14] = dose: 50.0 mg/kg/injection, schedule: Q01DX005 (ip), vehicle: Klucel (hydroxypropylcellulose) (HPC)
[15] = dose: 100.0 mg/kg/injection, schedule: Q01DX005 (ip), vehicle: Klucel (hydroxypropylcellulose) (HPC)
[16] = dose: 200.0 mg/kg/injection, schedule: Q01DX005 (ip), vehicle: Klucel (hydroxypropylcellulose) (HPC)
[17] = dose: 25.0 mg/kg/injection, schedule: Q01DX009 (ip), vehicle: saline with Tween-80

N#CC1=C(C#N)C(=O)C(Cl)=C(Cl)C1=O
T/C (dose: 3.13 mg/kg/injection, schedule: Q01DX009 (ip), vehicle: saline): 109 % of control
T/C (dose: 6.25 mg/kg/injection, schedule: Q01DX009 (ip), vehicle: saline): 118 % of control
T/C (dose: 6.25 mg/kg/injection, schedule: Q04DX002 (ip), vehicle: saline): 95 % of control
T/C (dose: 6.25 mg/kg/injection, schedule: Q04DX003 (ip), vehicle: saline): 95 % of control
T/C (dose: 12.5 mg/kg/injection, schedule: Q01DX009 (ip), vehicle: saline): 118 % of control
T/C (dose: 12.5 mg/kg/injection, schedule: Q04DX002 (ip), vehicle: saline): 109 % of control
T/C (dose: 12.5 mg/kg/injection, schedule: Q04DX003 (ip), vehicle: saline): 113 % of control
T/C (dose: 25.0 mg/kg/injection, schedule: Q04DX002 (ip), vehicle: saline with Tween-80): 117 % of control
T/C (dose: 25.0 mg/kg/injection, schedule: Q04DX002 (ip), vehicle: saline): 116 % of control
T/C (dose: 62.5 mg/kg/injection, schedule: Q01DX005 (ip), vehicle: saline): 95 % of control
T/C (dose: 125.0 mg/kg/injection, schedule: Q01DX005 (ip), vehicle: saline): 113 % of control
T/C (dose: 250.0 mg/kg/injection, schedule: Q01DX005 (ip), vehicle: saline): 94 % of control

CC(C)(C)OC(=O)N1CCc2c([nH]oc2=O)C1
T/C (dose: 50.0 mg/kg/injection, schedule: Q01DX009 (ip), vehicle: suspension in saline): 92 % of control
T/C (dose: 100.0 mg/kg/injection, schedule: Q01DX009 (ip), vehicle: suspension in saline): 90 % of control
T/C (dose: 200.0 mg/kg/injection, schedule: Q01DX009 (ip), vehicle: suspension in saline): 90 % of control

COc1cc(/C=C2\CCC/C(=C\c3ccc(OCC4CO4)c(OC)c3)C2=O)ccc1OCC1CO1 (stereo not drawn)
T/C [1]: 101 % of control
T/C [2]: 95 % of control
T/C [3]: 94 % of control

O=C1NN=C2CCCCCCCCCCC12 (stereo not drawn)
T/C [1]: 96 % of control
T/C [2]: 89 % of control
T/C [3]: 89 % of control

CN(O)C1(/C(N)=N/O)C(C2COC(C)(C)O2)OC2OC(C)(C)OC21 (stereo not drawn)
T/C (dose: 100.0 mg/kg/injection, schedule: Q04DX002 (ip), vehicle: Klucel (hydroxypropylcellulose) (HPC)): 106 % of control
T/C (dose: 200.0 mg/kg/injection, schedule: Q04DX002 (ip), vehicle: Klucel (hydroxypropylcellulose) (HPC)): 106 % of control
T/C (dose: 400.0 mg/kg/injection, schedule: Q04DX002 (ip), vehicle: Klucel (hydroxypropylcellulose) (HPC)): 105 % of control

CN(C)NC(=O)c1ccc(C(=O)NN(C)C)cc1
T/C (dose: 50.0 mg/kg/injection, schedule: Q01DX009 (ip), vehicle: Klucel (hydroxypropylcellulose) (HPC)): 108 % of control
T/C (dose: 100.0 mg/kg/injection, schedule: Q01DX009 (ip), vehicle: Klucel (hydroxypropylcellulose) (HPC)): 108 % of control
T/C (dose: 200.0 mg/kg/injection, schedule: Q01DX009 (ip), vehicle: Klucel (hydroxypropylcellulose) (HPC)): 113 % of control

COC(=O)c1cc2nc(C(C)C)n(Cc3ccccc3)c2cc1C(=O)OC
T/C [4]: 92 % of control
T/C [5]: 92 % of control
T/C [6]: 90 % of control

O=c1oc2cc(O)ccc2c2oc3cc(O)ccc3c12
T/C [7]: 100 % of control
T/C [8]: 94 % of control
T/C [9]: 93 % of control
T/C [10]: 93 % of control

CC1(C)OC2(C)CCC1C1C2N1C(=O)C1CC1 (stereo not drawn)
T/C [11]: 97 % of control
T/C [12]: 104 % of control
T/C [13]: 105 % of control

CCn1c2ccc(N=C=O)cc2c2c3[nH]c(=O)c4cccn4c3ccc21
T/C [11]: 95 % of control
T/C [12]: 88 % of control
T/C [13]: 86 % of control

Cc1cc(C(=O)O)c(C)c([N+](=O)[O-])c1
T/C [1]: 88 % of control
T/C [2]: 104 % of control
T/C [3]: 98 % of control
T/C (dose: 400.0 mg/kg/injection, schedule: Q01DX009 (ip), vehicle: saline with Tween-80): 100 % of control

O=C(NCCCl)Nc1[nH]c(=O)ncc1Cl
T/C [4]: 103 % of control
T/C [5]: 100 % of control
T/C [6]: 101 % of control

CN(C)c1ccc(/C=N/NC(=O)C(O)(c2ccccc2)c2ccccc2)cc1
T/C [4]: 102 % of control
T/C [5]: 102 % of control
T/C [6]: 96 % of control

C=CCNC(=S)Nc1ccccc1C(=O)c1ccccc1
T/C [1]: 104 % of control
T/C [2]: 103 % of control
T/C [3]: 103 % of control

CSC(=CC(=O)c1ccco1)SC
T/C [4]: 98 % of control
T/C [5]: 96 % of control

COc1c(C)cc(C)c(CCl)c1-c1c(CCl)c(C)cc(C)c1OC
T/C (dose: 100.0 mg/kg/injection, schedule: Q01DX001 (ip), vehicle: Klucel (hydroxypropylcellulose) (HPC)): 90 % of control
T/C (dose: 200.0 mg/kg/injection, schedule: Q01DX001 (ip), vehicle: Klucel (hydroxypropylcellulose) (HPC)): 93 % of control

OC1(O)CCC1(O)OCCBr (stereo not drawn)
T/C [4]: 92 % of control
T/C [5]: 108 % of control

CCCCCCCC(=O)Nc1nnc(SCCCCCCCCCCCCSc2nnc(NC(=O)CCCCCCC)s2)s1
T/C [14]: 90 % of control
T/C [15]: 89 % of control
T/C [16]: 86 % of control

O=c1[nH]cnc2c1ncn2C1SC(CO)C(O)C1O (stereo not drawn)
T/C (dose: 25.0 mg/kg/injection, schedule: Q01DX005 (ip), vehicle: Klucel (hydroxypropylcellulose) (HPC)): 100 % of control
T/C [14]: 108 % of control
T/C [15]: 101 % of control
T/C [16]: 101 % of control
T/C (dose: 400.0 mg/kg/injection, schedule: Q01DX005 (ip), vehicle: Klucel (hydroxypropylcellulose) (HPC)): 92 % of control

Cc1c2[nH]c(C(=O)O)cc(=O)c2cc2c(=O)cc(C(=O)O)[nH]c12
T/C [17]: 100 % of control
T/C [1]: 99 % of control
T/C [2]: 94 % of control

O=C(c1ccccc1)c1ccc([N+](=O)[O-])cc1
T/C (dose: 3.13 mg/kg/injection, schedule: Q01DX009 (ip), vehicle: saline with Tween-80): 97 % of control
T/C (dose: 6.25 mg/kg/injection, schedule: Q01DX009 (ip), vehicle: saline with Tween-80): 95 % of control
T/C (dose: 12.5 mg/kg/injection, schedule: Q01DX009 (ip), vehicle: saline with Tween-80): 91 % of control
T/C [17]: 91 % of control
T/C [7]: 95 % of control
T/C [8]: 100 % of control
T/C [9]: 109 % of control

N/N=C(/c1ccc(Cl)cc1)N1CCOCC1
T/C [8]: 103 % of control
T/C [9]: 103 % of control
T/C [10]: 98 % of control

CCOC(=O)CC(=O)C(C)(OCC)OCC
T/C (dose: 100.0 mg/kg/injection, schedule: Q01DX009 (ip), vehicle: saline): 157 % of control
T/C (dose: 200.0 mg/kg/injection, schedule: Q01DX009 (ip), vehicle: saline): 190 % of control

O=C1c2ccccc2C(Br)CCC1Br (stereo not drawn)
T/C (dose: 100.0 mg/kg/injection, schedule: Q01DX009 (ip), vehicle: distilled water + Tween-80 + alcohol): 115 % of control
T/C (dose: 200.0 mg/kg/injection, schedule: Q01DX009 (ip), vehicle: distilled water + Tween-80 + alcohol): 115 % of control
T/C (dose: 400.0 mg/kg/injection, schedule: Q01DX009 (ip), vehicle: distilled water + Tween-80 + alcohol): 113 % of control

FC(F)(F)C1(C(F)(F)F)O[Si]2(OC(C(F)(F)F)(C(F)(F)F)c3ccccc32)c2ccccc21
T/C (dose: 25.0 mg/kg/injection, schedule: Q01DX005 (ip), vehicle: distilled water + Tween-80 + alcohol): 97 % of control
T/C (dose: 25.0 mg/kg/injection, schedule: Q01DX005 (ip), vehicle: saline with Tween-80): 105 % of control
T/C (dose: 50.0 mg/kg/injection, schedule: Q01DX005 (ip), vehicle: distilled water + Tween-80 + alcohol): 96 % of control
T/C [11]: 103 % of control
T/C [12]: 105 % of control

COC1=C[C@@H](C)[C@@H]2C[C@H]3O[C@@H](OC4OC(CO)C(O)C(O)C4O)C[C@H]4C(C)=C(OC)C(=O)[C@H]([C@@]2(C)C1=O)[C@@]34C (stereo partly drawn)
T/C (dose: 4.0 mg/kg/injection, schedule: Q01DX005 (ip), vehicle: Klucel (hydroxypropylcellulose) (HPC)): 96 % of control
T/C (dose: 8.0 mg/kg/injection, schedule: Q01DX005 (ip), vehicle: Klucel (hydroxypropylcellulose) (HPC)): 94 % of control
T/C (dose: 16.0 mg/kg/injection, schedule: Q01DX005 (ip), vehicle: Klucel (hydroxypropylcellulose) (HPC)): 103 % of control
